Data reported in ChEMBL document CHEMBL1136175, “Synthesis and antimycobacterial activity of capuramycin analogues. Part 2: acylated derivatives of capuramycin-related compounds” (Bioorg Med Chem Lett, 2003).
In brackets after ≈: the same amount, converted by molar mass.

Columns and labels:
[1] = system: Mycolicibacterium smegmatis; test: Antimycobacterial activity was determined against Mycobacterium smegmatis SANK75075; format: functional
Mycobacterium kansasii = test: Antimycobacterial activity against Mycobacterium kansasii ATCC 12478; format: functional
Mycobacterium avium = test: Antimycobacterial activity against Mycobacterium avium NIHJ1605; format: functional
[2] = system: Mycobacterium intracellulare; test: Antimycobacterial activity against Mycobacterium intracellular ATCC 1954 E-3; format: functional
[3] = biological target: T1, Phospho-N-acetylmuramoyl-pentapeptide-transferase (Escherichia coli K-12, UniProt P0A6W3); test: Inhibitory concentration required against Translocase I
T1 sequence (P0A6W3 whole entry): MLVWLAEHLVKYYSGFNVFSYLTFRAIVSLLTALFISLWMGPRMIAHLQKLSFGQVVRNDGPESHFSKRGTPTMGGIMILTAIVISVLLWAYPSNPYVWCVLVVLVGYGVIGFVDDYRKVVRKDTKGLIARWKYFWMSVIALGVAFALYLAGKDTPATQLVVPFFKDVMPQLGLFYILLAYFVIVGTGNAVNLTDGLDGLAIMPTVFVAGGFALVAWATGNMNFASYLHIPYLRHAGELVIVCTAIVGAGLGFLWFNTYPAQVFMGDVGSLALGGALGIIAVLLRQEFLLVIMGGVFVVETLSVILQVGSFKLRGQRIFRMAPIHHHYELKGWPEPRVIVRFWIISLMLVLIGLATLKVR

Row | MIC [1] | IC50 [3] | Compound | MIC (Mycobacterium kansasii) | MIC (Mycobacterium avium) | MIC [2]
1 | 6.25 µg/mL (≈ 7.37 µM) |  | CCCCCCCC/C=C\CCCCCCCC(=O)O[C@@H]1[C@H](OC)[C@@H]([C@@H](O[C@H]2OC(C(=O)N[C@H]3CCC[C@@H](C)NC3=O)=C[C@H](O)[C@@H]2O)C(N)=O)O[C@H]1n1ccc(=O)[nH]c1=O |  |  | 
2 | 25 µg/mL (≈ 36.4 µM) |  | CO[C@H]1[C@@H](OC(=O)c2ccccc2)[C@H](n2ccc(=O)[nH]c2=O)O[C@@H]1[C@@H](O[C@H]1OC(C(=O)N[C@H]2CCC[C@@H](C)NC2=O)=C[C@H](O)[C@@H]1O)C(N)=O |  |  | 
3 | 50 µg/mL (≈ 57.1 µM) |  | CCCCCCCC/C=C\CCCCCCCCCC(=O)O[C@@H]1[C@H](OC)[C@@H]([C@@H](O[C@H]2OC(C(=O)N[C@H]3CCC[C@@H](C)NC3=O)=C[C@H](O)[C@@H]2O)C(N)=O)O[C@H]1n1ccc(=O)[nH]c1=O |  |  | 
4 |  |  | NNC(=O)c1ccncc1 [ISONIAZID] | 2 µg/mL (≈ 14.6 µM) | 1 µg/mL (≈ 7.29 µM) | 8 µg/mL (≈ 58.3 µM)
5 | 25 µg/mL (≈ 32.9 µM) |  | CO[C@H]1[C@@H](OC(=O)C(C)c2ccc([N+](=O)[O-])cc2)[C@H](n2ccc(=O)[nH]c2=O)O[C@@H]1[C@@H](O[C@H]1OC(C(=O)N[C@H]2CCC[C@@H](C)NC2=O)=C[C@H](O)[C@@H]1O)C(N)=O (stereo not given in full) |  |  | 
6 |  |  | CO[C@H]1/C=C/O[C@@]2(C)Oc3c(C)c(O)c4c(O)c(c(/C=N/N5CCN(C)CC5)c(O)c4c3C2=O)NC(=O)/C(C)=C\C=C\[C@H](C)[C@H](O)[C@@H](C)[C@@H](O)[C@@H](C)[C@H](OC(C)=O)[C@@H]1C [RIFAMPIN] | 0.25 µg/mL (≈ 0.304 µM) | 0.125 µg/mL (≈ 0.152 µM) | 0.125 µg/mL (≈ 0.152 µM)
7 | 6.25 µg/mL (≈ 7.39 µM) |  | CCCCC/C=C\C/C=C\CCCCCCCC(=O)O[C@@H]1[C@H](OC)[C@@H]([C@@H](O[C@H]2OC(C(=O)N[C@H]3CCC[C@@H](C)NC3=O)=C[C@H](O)[C@@H]2O)C(N)=O)O[C@H]1n1ccc(=O)[nH]c1=O |  |  | 
8 | 25 µg/mL (≈ 34.5 µM) | 235 nM | CCCCCCCCC(=O)O[C@@H]1[C@H](OC)[C@@H]([C@@H](O[C@H]2OC(C(=O)N[C@H]3CCC[C@@H](C)NC3=O)=C[C@H](O)[C@@H]2O)C(N)=O)O[C@H]1n1ccc(=O)[nH]c1=O |  |  | 
9 | 25 µg/mL (≈ 31.6 µM) |  | CO[C@H]1[C@@H](OC(=O)CC(c2ccccc2)c2ccccc2)[C@H](n2ccc(=O)[nH]c2=O)O[C@@H]1[C@@H](O[C@H]1OC(C(=O)N[C@H]2CCC[C@@H](C)NC2=O)=C[C@H](O)[C@@H]1O)C(N)=O |  |  | 
10 | 25 µg/mL (≈ 32.1 µM) | 769 nM | CCCCCCCCCCC(C)C(=O)O[C@@H]1[C@H](OC)[C@@H]([C@@H](O[C@H]2OC(C(=O)N[C@H]3CCC[C@@H](C)NC3=O)=C[C@H](O)[C@@H]2O)C(N)=O)O[C@H]1n1ccc(=O)[nH]c1=O (stereo not given in full) |  |  | 
11 | 50 µg/mL (≈ 59.8 µM) |  | CCCCCCCCCCCCCCCCCC(=O)O[C@@H]1[C@H](OC)[C@@H]([C@@H](O[C@H]2OC(C(=O)N[C@H]3CCCCNC3=O)=C[C@H](O)[C@@H]2O)C(N)=O)O[C@H]1n1ccc(=O)[nH]c1=O |  |  | 
12 | 6.25 µg/mL (≈ 7.87 µM) | 1260 nM | CCCCCCCCCCC(C)(C)C(=O)O[C@@H]1[C@H](OC)[C@@H]([C@@H](O[C@H]2OC(C(=O)N[C@H]3CCC[C@@H](C)NC3=O)=C[C@H](O)[C@@H]2O)C(N)=O)O[C@H]1n1ccc(=O)[nH]c1=O |  |  | 
13 | 12.5 µg/mL (≈ 16.6 µM) | 1860 nM | CCCCCCCCCOC(=O)O[C@@H]1[C@H](OC)[C@@H]([C@@H](O[C@H]2OC(C(=O)N[C@H]3CCC[C@@H](C)NC3=O)=C[C@H](O)[C@@H]2O)C(N)=O)O[C@H]1n1ccc(=O)[nH]c1=O |  |  | 
14 | 3.13 µg/mL (≈ 3.71 µM) |  | CC/C=C\C/C=C\C/C=C\CCCCCCCC(=O)O[C@@H]1[C@H](OC)[C@@H]([C@@H](O[C@H]2OC(C(=O)N[C@H]3CCC[C@@H](C)NC3=O)=C[C@H](O)[C@@H]2O)C(N)=O)O[C@H]1n1ccc(=O)[nH]c1=O |  |  | 
15 | 50 µg/mL (≈ 60.8 µM) |  | CCCCCCCCCCCCCCCCC(=O)O[C@@H]1[C@H](OC)[C@@H]([C@@H](O[C@H]2OC(C(=O)N[C@H]3CCCCNC3=O)=C[C@H](O)[C@@H]2O)C(N)=O)O[C@H]1n1ccc(=O)[nH]c1=O |  |  | 
16 | > 100 µg/mL | 16600 nM | CCCCCCCCCCCCCCCCCCCCCC(=O)O[C@@H]1[C@H](OC)[C@@H]([C@@H](O[C@H]2OC(C(=O)N[C@H]3CCC[C@@H](C)NC3=O)=C[C@H](O)[C@@H]2O)C(N)=O)O[C@H]1n1ccc(=O)[nH]c1=O |  |  | 
17 | > 100 µg/mL | 34200 nM | CCCCCCCCCCCCCCCCCCCC(=O)O[C@@H]1[C@H](OC)[C@@H]([C@@H](O[C@H]2OC(C(=O)N[C@H]3CCC[C@@H](C)NC3=O)=C[C@H](O)[C@@H]2O)C(N)=O)O[C@H]1n1ccc(=O)[nH]c1=O |  |  | 
18 | 100 µg/mL (≈ 112 µM) |  | CCCCCCCCCCCCCCCCCCCCCC(=O)O[C@@H]1[C@H](OC)[C@@H]([C@@H](O[C@H]2OC(C(=O)N[C@H]3CCCCNC3=O)=C[C@H](O)[C@@H]2O)C(N)=O)O[C@H]1n1ccc(=O)[nH]c1=O |  |  | 
19 | 50 µg/mL (≈ 70.3 µM) | 183 nM | CCCCCCOC(=O)O[C@@H]1[C@H](OC)[C@@H]([C@@H](O[C@H]2OC(C(=O)N[C@H]3CCC[C@@H](C)NC3=O)=C[C@H](O)[C@@H]2O)C(N)=O)O[C@H]1n1ccc(=O)[nH]c1=O |  |  | 
20 | 50 µg/mL (≈ 57.9 µM) |  | CCCCCCCCCCCCCCCCCCCC(=O)O[C@@H]1[C@H](OC)[C@@H]([C@@H](O[C@H]2OC(C(=O)N[C@H]3CCCCNC3=O)=C[C@H](O)[C@@H]2O)C(N)=O)O[C@H]1n1ccc(=O)[nH]c1=O |  |  | 
21 | > 100 µg/mL |  | CCCCCCCC/C=C\CCCCCCCCCCCC(=O)O[C@@H]1[C@H](OC)[C@@H]([C@@H](O[C@H]2OC(C(=O)N[C@H]3CCC[C@@H](C)NC3=O)=C[C@H](O)[C@@H]2O)C(N)=O)O[C@H]1n1ccc(=O)[nH]c1=O |  |  | 

Row | Compound | MIC [1] | IC50 [3] | MIC (Mycobacterium kansasii) | MIC (Mycobacterium avium) | MIC [2]
22 | CCCCCCCCCCCCCCCCC(=O)O[C@@H]1[C@H](OC)[C@@H]([C@@H](O[C@H]2OC(C(=O)N[C@H]3CCC[C@@H](C)NC3=O)=C[C@H](O)[C@@H]2O)C(N)=O)O[C@H]1n1ccc(=O)[nH]c1=O | > 100 µg/mL |  | 4 µg/mL (≈ 4.78 µM) | 2 µg/mL (≈ 2.39 µM) | 8 µg/mL (≈ 9.57 µM)
23 | CO[C@H]1[C@@H](O)[C@H](n2ccc(=O)[nH]c2=O)O[C@@H]1[C@@H](O[C@H]1OC(C(=O)N[C@H]2CCC[C@@H](C)NC2=O)=C[C@H](O)[C@@H]1O)C(N)=O | 6.25 µg/mL (≈ 10.7 µM) |  | 16 µg/mL (≈ 27.4 µM) | 8 µg/mL (≈ 13.7 µM) | 4 µg/mL (≈ 6.85 µM)
24 | CCCCCCCCCCCCCC(=O)O[C@@H]1[C@H](OC)[C@@H]([C@@H](O[C@H]2OC(C(=O)N[C@H]3CCCCNC3=O)=C[C@H](O)[C@@H]2O)C(N)=O)O[C@H]1n1ccc(=O)[nH]c1=O | 1.56 µg/mL (≈ 2 µM) |  | 4 µg/mL (≈ 5.13 µM) | 2 µg/mL (≈ 2.56 µM) | 1 µg/mL (≈ 1.28 µM)
25 | CCCCCCCCCC(=O)O[C@@H]1[C@H](OC)[C@@H]([C@@H](O[C@H]2OC(C(=O)N[C@H]3CCC[C@@H](C)NC3=O)=C[C@H](O)[C@@H]2O)C(N)=O)O[C@H]1n1ccc(=O)[nH]c1=O | 6.25 µg/mL (≈ 8.47 µM) |  | < 0.063 µg/mL | < 0.063 µg/mL | < 0.063 µg/mL
26 | CCCCCCCCCCCCCCCC(=O)O[C@@H]1[C@H](OC)[C@@H]([C@@H](O[C@H]2OC(C(=O)N[C@H]3CCCCNC3=O)=C[C@H](O)[C@@H]2O)C(N)=O)O[C@H]1n1ccc(=O)[nH]c1=O | 1.56 µg/mL (≈ 1.93 µM) |  | 4 µg/mL (≈ 4.95 µM) | 1 µg/mL (≈ 1.24 µM) | 2 µg/mL (≈ 2.48 µM)
27 | CCCCCCCCCCCC(=O)O[C@@H]1[C@H](OC)[C@@H]([C@@H](O[C@H]2OC(C(=O)N[C@H]3CCCCNC3=O)=C[C@H](O)[C@@H]2O)C(N)=O)O[C@H]1n1ccc(=O)[nH]c1=O | 3.13 µg/mL (≈ 4.16 µM) |  | 0.125 µg/mL (≈ 0.166 µM) | < 0.063 µg/mL | 0.125 µg/mL (≈ 0.166 µM)
28 | CCCCCCCCCCCCCCC(=O)O[C@@H]1[C@H](OC)[C@@H]([C@@H](O[C@H]2OC(C(=O)N[C@H]3CCCCNC3=O)=C[C@H](O)[C@@H]2O)C(N)=O)O[C@H]1n1ccc(=O)[nH]c1=O | 3.13 µg/mL (≈ 3.94 µM) |  | 4 µg/mL (≈ 5.04 µM) | 2 µg/mL (≈ 2.52 µM) | 1 µg/mL (≈ 1.26 µM)
